According to US20160031937A1, “NEURAL REGENERATION PEPTIDES AND USES THEREFOR” (CURONZ HOLDINGS COMPANY LIMITED, priority 2013, published 2016):
Read-outs that look alike come from different tables or passages of the source. Square brackets hold non-standard residues; d marks the D form. Ends that are not written are not given here. Aib = CC(C)(N)C(=O)O

Tests used:
human W9-hESCs = type: cell-based; details: for reduction in LDH detected cell death: first 4 hours; for decrease of delayed injury (LDH): between removal of OGD at 4 hours and 24 hours
Experimental: Experiments with human embryonic stem cells (hESC) were carried out in accordance with the guidelines and regulations of the NHMRC and with the approval of the Austin Health Human Research Ethics Committee (Approval number H2008/03194), and University of Melbourne Human Research Ethics Committee (Approval number 0605017). H9 (WA-09, WiCell) cell lines were grown as previously described (Dottori & Pera, 2007).
Briefly, hESC were cultured on mitomycin-C treated mouse embryonic fibroblasts (MEFs) in hESC medium consisting of high-glucose Dulbecco's Modified Eagle Medium (DMEM) without sodium pyruvate, supplemented with 1% insulin/transferrin/selenium, 0.1 mM β-mercaptoethanol, 1% nonessential amino acids (NEAA), 2 mM glutamine, 25 U/ml penicillin, 25 μg/ml streptomycin (all from Invitrogen) and 20% fetal calf serum (FCS) (Hyclone).
Alternatively, hESC were cultured on mitomycin-C treated human foreskin fibroblasts (HFF; ATCC, CRL-2097) in KSR media consisting of DMEM/nutrient mixture F-12, supplemented with 0.1 mM […], 1% nonessential amino acids (NEAA), 2 mM glutamine, 25 U/ml penicillin, 25 μg/ml streptomycin and 20% knockout serum replacement (all from Invitrogen).
All cells were cultured at 37° C. in 5% CO2 with 100% humidity. Colonies were mechanically dissected every 7 days (subcultivated or passaged) and transferred to freshly prepared MEFs or HFFs. Media was changed every second day.
(§1) Neuronal differentiation was achieved using the noggin induction method described for mouse neurospheres as adapted by Dottori for human neurospheres (Dottori & Pera, 2007). The colonies were maintained at 37° C., with 5% CO2 in hESC medium supplemented with 500 ng/ml of Noggin for 14 days while replacing Noggin every other day.
(§2) At this point, the cells were washed with PBS and the colonies were again mechanically dissociated, but this time the central (differentiated) part of the colony was also cut into smaller pieces using a 26-gauge needle. The pieces were transferred to individual wells in a low adherent 96-well plate containing Neurobasal®A (NBM) (Invitrogen) supplemented with 1× X B-27® (Invitrogen) and 1× N-2 (Invitrogen) 20 ng/ml human recombinant EGF and 20 ng/ml human recombinant bFGF (Pharmacia). Media was changed every 2 to 3 days to allow neurosphere formation over 2 weeks.
In order to facilitate neuronal differentiation, neurospheres were again separated into smaller pieces under a dissection microscope, and three to four pieces were transferred to each well of a 96-well plate. Prior to this transfer, the plate was pre-coated with poly-D-lysine (10 μg/ml in PBS), washed in PBS, recoated with mouse laminin (5 μg/ml in PBS), and washed again. The cells were then grown for 11 days (with media changed every two days) in NBM lacking growth factors prior to induction of injury and assessment of hypothermia.
On the day of experiments, the medium was changed to NBM+N2 containing a B27 preparation lacking the usual antioxidants (Invitrogen; 10889-038) to eliminate their confounding effects (NBM-AO).
(§3) To maintain isoosmotic pressure conditions, 25 mM 2-deoxy-D-glucose was added to NBM-AO medium and equilibrated for 30 minutes at room temperature before the initial media change as described above. […] Culture supernatant was removed after this 4 hour period and stored at 4° C. until analysed for lactate dehydrogenase (LDH) activity.
The media was replaced with fresh NBM-AO and the cells were incubated for a further 20 hours containing drug, before again measuring LDH. Oxidative stress was induced by adding 50 μM fresh H2O2 (Sigma, H1009) to the growth factor negative NBM on initiation of the experiment with continued culture for 4 hours when LDH was measured and NBM-AO without H2O2 was returned to the culture which was maintained for a further 20 hours before again measuring LDH.

W9-hESCs = assay: TUNEL staining for apoptotic cell death after OGD injury; type: cell-based, human; details: 24 hours, 100 pM NRP2945
Experimental: as §1
as §2, with “Media was changed every 2 to 3 days to allow neurosphere formation over 2 weeks.” left out
as §3, with “activity. […]” for “activity.”
Tunnel positive cells, wells were imaged and the images re-coded independently before quantitation. No additional blinding was performed for the machine read LDH assay process.

CXCR4 gene expression = CXCR4 gene expression by real time PCR; type: cell-based, human; details: W9-hESCs
Experimental: The second experiment was done to assess the capability of NRP2945 for regulating the gene expression of its target receptor subunit CXCR4. For this purpose, W9-hESCs were either exposed to 10 minute, 30 minute or 60 minute of either 10 pM or 100 pM of NRP2945 under normoxic conditions; or in combination with 4 hours of OGD injury at concentrations of either 10 pM or 100 pM of NRP2945. At the end of the 4 hours, mRNA was extracted from all the cell samples, cDNA synthesis was performed using the SuperSript® cDNA kit (Invitrogen) followed by real time PCR. The efficacy of the real time PCR was 99% when using the following primers for the CXCR4 product propagation: […]
according to the publication: Nagase, Miyamasu et al. (2000) - J Immunol 164: 5935-5943

neuronal stem cells = assay: Neuronal chemoattraction; type: cell-based

Gly Arg Arg Ala Ala Pro Gly Arg Aib Gly Gly (GRRAAPGR[Aib]GG) [NRP2945, synthetic 11-mer peptidomimetic optimized for stability and pharmacokinetics]
neuroprotective effects during OGD (human W9-hESCs; 100 fM NRP2945): did not show neuroprotective effects
decrease in LDH detected cell death in presence of CXCR4 inhibitor (human W9-hESCs; 4 hours of OGD injury, 100 pM NRP2945 plus 300 nM AMD3100): abolished
decrease in LDH detected cell death (human W9-hESCs; AMD3100 experiment, 4 hours of OGD injury, 100 pM NRP2945 without inhibitor): 44%
reduction of LDH release, net effect at 24 hours (human W9-hESCs; AMD3100 experiment, OGD, 100 pM NRP2945 without inhibitor): 55%
reduction in LDH detected cell death (human W9-hESCs; OGD, 1 pM NRP2945 at injury induction): 23%
reduction in LDH detected cell death (human W9-hESCs; OGD, 10 pM NRP2945 at injury induction): 37%
reduction in LDH detected cell death (human W9-hESCs; OGD, 100 pM NRP2945 at injury induction): 43%
reduction of LDH release, net effect at 24 hours (human W9-hESCs; OGD, 1 pM NRP2945): 28%
reduction of LDH release, net effect at 24 hours (human W9-hESCs; OGD, 10 pM NRP2945): 44%
reduction of LDH release, net effect at 24 hours (human W9-hESCs; OGD, 100 pM NRP2945): 52%
reduction of LDH release, net effect at 24 hours, in presence of CXCR4 inhibitor (human W9-hESCs; OGD, 100 pM NRP2945 plus 300 nM AMD3100): blocked
reduction of LDH release, net effect at 24 hours (human W9-hESCs; OGD, 100 fM NRP2945): 17%
decrease of delayed injury (LDH) (human W9-hESCs; 10 pM NRP2945): 67%
decrease of delayed injury (LDH) (human W9-hESCs; 100 pM NRP2945): 79%
reduction in LDH detected cell death (human W9-hESCs; repeat experiment, OGD, 10 pM NRP2945 during injury induction): 41%
reduction in LDH detected cell death (human W9-hESCs; repeat experiment, OGD, 10 pM NRP2945 one hour after injury induction): 31%
reduction in LDH detected cell death (human W9-hESCs; repeat experiment, OGD, 100 pM NRP2945 during injury induction): 47%
reduction in LDH detected cell death (human W9-hESCs; repeat experiment, OGD, 100 pM NRP2945 one hour after injury induction): 34%
reduction of LDH release, net effect at 24 hours (human W9-hESCs; repeat experiment, OGD, 10 pM NRP2945 added at 0 hours): 48%
reduction of LDH release, net effect at 24 hours (human W9-hESCs; repeat experiment, OGD, 10 pM NRP2945 added at 1 hour): 36%
reduction of LDH release, net effect at 24 hours (human W9-hESCs; repeat experiment, OGD, 10 pM NRP2945 added at 3 hours): 22%
reduction of LDH release, net effect at 24 hours (human W9-hESCs; repeat experiment, OGD, 100 pM NRP2945 added at 0 hours): 54%
reduction of LDH release, net effect at 24 hours (human W9-hESCs; repeat experiment, OGD, 100 pM NRP2945 added at 1 hour): 35%
reduction of LDH release, net effect at 24 hours (human W9-hESCs; repeat experiment, OGD, 100 pM NRP2945 added at 3 hours): 22%
W9-hESCs protected from apoptotic cell death (TUNEL) (W9-hESCs): 23%
CXCR4 gene expression in the presence of OGD (CXCR4 gene expression; 4 hours of OGD, 10 pM or 100 pM NRP2945): unchanged
expression of CXCR4 gene (CXCR4 gene expression; normoxic conditions, 10 pM or 100 pM NRP2945, relative to normoxic control, normalised to β actin): decreased significantly after only 10 minutes
time of peak in CXCR4 gene down-regulation (CXCR4 gene expression; normoxic, maintained for at least 1 hour): 30 min
extent of CXCR4 down-regulation (CXCR4 gene expression; within 30 minutes): constitutively expressed levels seen in a human tissue cDNA library
neuronal chemoattractive potency relative to SDF-1 (neuronal stem cells; NRP2945 versus SDF-1): more than 1 million
EC50 values for chemoattraction (neuronal stem cells; preliminary experiments): lower femtomolar range
